# Assay: Solubility of API in water
# Format: physicochemical
# Settings: 25 °C
# Excerpt: The skilled reader will readily appreciate that the granules of the disclosure rapidly disperse. It is therefore apparent that the physical properties of the API and in particular its solubility will have no impact on the dispersion time.
row,solubility [mg/mL],Structure (SMILES)
1,175,"O=c1ccc2ncc(=O)n3c2n1C[C@H]3CN1CCC(NCc2cc3c(cn2)OCCC3)CC1 [gepotidacin, (2R)-2-({4-[(3,4-Dihydro-2H-pyrano[2,3-c]pyridin-6-ylmethyl)amino]-1-piperidinyl}methyl)-1,2-dihydro-3H,8H-2a,5,8a-triazaacenaphthylene-3,8-dione]"
2,2.9,"C[C@H]1CO[C@@H]2Cn3cc(C(=O)NCc4ccc(F)cc4F)c(=O)c(O)c3C(=O)N12 [cabotegravir, (3R,6S)—N-[(2,4-difluorophenyl)methyl]-10-hydroxy-6-methyl-8,11-dioxo-4-oxa-1,7-diazatricyclo[7.4.0.03,7]trideca-9,12-diene-12-carboxamide]"

# Reference: patent publication US20260041639A1, “GEPOTIDACIN FORMULATION” (GLAXOSMITHKLINE INTELLECTUAL PROPERTY DEVELOPMENT LIMITED, priority 2022, published 2026)
